Laboratory results published in ChEMBL document CHEMBL1909046, “DrugMatrix in vitro pharmacology data”.

Columns and labels:
Estrogen receptor = target: T1, Estrogen receptor (Homo sapiens, UniProt P03372); details: sf9; further: in other assays of this panel Not Active means under 50% inhibition at 10 µM
T1 sequence (P03372 whole entry): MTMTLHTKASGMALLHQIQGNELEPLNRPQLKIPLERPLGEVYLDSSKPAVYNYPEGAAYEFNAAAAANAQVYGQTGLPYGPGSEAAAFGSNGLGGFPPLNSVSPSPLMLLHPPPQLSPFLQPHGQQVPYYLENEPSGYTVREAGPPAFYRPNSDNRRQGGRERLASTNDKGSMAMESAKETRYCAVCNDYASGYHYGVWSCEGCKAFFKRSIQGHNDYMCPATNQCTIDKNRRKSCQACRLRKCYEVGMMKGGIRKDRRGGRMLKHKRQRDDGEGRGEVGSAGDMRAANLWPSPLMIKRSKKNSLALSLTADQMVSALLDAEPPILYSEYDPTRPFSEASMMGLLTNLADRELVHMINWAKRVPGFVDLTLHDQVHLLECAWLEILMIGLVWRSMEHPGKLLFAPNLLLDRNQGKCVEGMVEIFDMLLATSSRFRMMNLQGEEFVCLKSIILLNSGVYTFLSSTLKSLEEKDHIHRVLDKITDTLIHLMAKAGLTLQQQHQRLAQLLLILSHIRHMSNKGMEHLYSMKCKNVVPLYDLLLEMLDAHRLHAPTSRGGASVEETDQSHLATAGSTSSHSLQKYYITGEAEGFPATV

Mu-type opioid receptor = Mu-type opioid receptor (Homo sapiens, UniProt P35372); assay: DRUGMATRIX: Opiate mu (OP3, MOP) radioligand binding (ligand: [3H] Diprenorphine); type: cell membranes, CHO-K1, Membrane; details: cho-k1; Not Active = under 50% inhibition at 10 µM
Mu-type opioid receptor, sequence (P35372 whole entry): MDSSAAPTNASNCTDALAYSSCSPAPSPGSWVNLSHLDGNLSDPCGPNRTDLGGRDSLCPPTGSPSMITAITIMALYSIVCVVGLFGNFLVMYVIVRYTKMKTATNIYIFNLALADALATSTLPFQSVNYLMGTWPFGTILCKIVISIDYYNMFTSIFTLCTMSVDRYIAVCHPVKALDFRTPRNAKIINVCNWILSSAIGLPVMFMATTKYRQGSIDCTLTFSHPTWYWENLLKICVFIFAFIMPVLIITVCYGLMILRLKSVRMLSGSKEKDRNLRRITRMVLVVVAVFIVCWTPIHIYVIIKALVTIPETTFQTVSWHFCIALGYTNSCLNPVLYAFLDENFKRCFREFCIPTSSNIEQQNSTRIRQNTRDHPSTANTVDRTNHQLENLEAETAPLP

[1] = DRUGMATRIX: Leukotriene, BLT (LTB4) radioligand binding (ligand: [3H]LTB4); type: cell membranes, Membrane; details: u-937; Not Active = under 50% inhibition at 10 µM
[2] = target: cGMP-specific 3',5'-cyclic phosphodiesterase (Homo sapiens, UniProt O76074); assay: DRUGMATRIX: Phosphodiesterase PDE5 enzyme inhibition (substrate: [3H]cGMP + cGMP); type: tissue-based; details: platelet; Not Active = under 50% inhibition at 10 µM
[3] = target: Sodium-dependent dopamine transporter (Homo sapiens, UniProt Q01959); assay: DRUGMATRIX: Dopamine Transporter radioligand binding (ligand: [125I] RTI-55); type: cell membranes, CHO-K1, Membrane; details: cho-k1; Not Active = under 50% inhibition at 10 µM
Sodium-dependent dopamine transporter, sequence (Q01959 whole entry): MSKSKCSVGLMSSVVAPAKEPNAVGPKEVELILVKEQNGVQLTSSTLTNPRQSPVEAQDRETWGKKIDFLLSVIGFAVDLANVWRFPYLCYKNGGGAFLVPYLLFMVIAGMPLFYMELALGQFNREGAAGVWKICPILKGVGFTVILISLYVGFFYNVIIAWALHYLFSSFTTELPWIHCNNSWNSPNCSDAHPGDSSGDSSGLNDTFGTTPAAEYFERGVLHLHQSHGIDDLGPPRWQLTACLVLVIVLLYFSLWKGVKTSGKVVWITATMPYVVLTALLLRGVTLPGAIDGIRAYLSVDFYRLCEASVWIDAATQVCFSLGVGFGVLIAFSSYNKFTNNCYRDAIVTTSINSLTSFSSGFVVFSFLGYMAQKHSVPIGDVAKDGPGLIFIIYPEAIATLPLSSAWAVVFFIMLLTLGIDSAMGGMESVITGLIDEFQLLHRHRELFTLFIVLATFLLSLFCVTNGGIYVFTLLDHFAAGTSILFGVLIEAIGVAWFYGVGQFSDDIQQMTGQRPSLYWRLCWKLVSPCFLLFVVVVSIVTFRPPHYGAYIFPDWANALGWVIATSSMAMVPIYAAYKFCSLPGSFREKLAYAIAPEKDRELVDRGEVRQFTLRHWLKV

[4] = target: T2, Neuropeptide Y receptor type 2 (Homo sapiens, UniProt P49146); type: cell membranes, Membrane; details: kan-ts; further: in other assays of this panel Not Active means under 50% inhibition at 10 µM
T2 sequence (P49146 whole entry): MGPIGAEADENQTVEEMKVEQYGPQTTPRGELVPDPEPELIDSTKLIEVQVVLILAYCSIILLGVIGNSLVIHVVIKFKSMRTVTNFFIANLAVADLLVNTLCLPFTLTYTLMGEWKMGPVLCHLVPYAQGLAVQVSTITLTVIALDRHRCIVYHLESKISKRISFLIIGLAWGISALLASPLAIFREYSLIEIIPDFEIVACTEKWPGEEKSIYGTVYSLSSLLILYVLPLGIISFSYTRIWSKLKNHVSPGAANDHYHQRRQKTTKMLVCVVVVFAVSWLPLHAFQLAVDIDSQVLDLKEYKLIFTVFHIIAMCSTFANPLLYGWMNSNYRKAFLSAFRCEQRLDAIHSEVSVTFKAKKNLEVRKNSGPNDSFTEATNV

[5] = target: Aldo-keto reductase family 1 member B1 (Rattus norvegicus, UniProt P07943); assay: biochemical; type: tissue-based, Lens of camera-type eye;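 further: inhibition of aldose reductase enzyme activity, measured with DL-glyceraldehyde as the substrate; in other assays of this panel Not Active means under 50% inhibition at 10 µM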
[6] = target: T3, C-C chemokine receptor type 4 (Homo sapiens, UniProt P51679); type: cell membranes, Membrane; details: chem-1; further: in other assays of this panel Not Active means under 50% inhibition at 10 µM
T3 sequence (P51679 whole entry): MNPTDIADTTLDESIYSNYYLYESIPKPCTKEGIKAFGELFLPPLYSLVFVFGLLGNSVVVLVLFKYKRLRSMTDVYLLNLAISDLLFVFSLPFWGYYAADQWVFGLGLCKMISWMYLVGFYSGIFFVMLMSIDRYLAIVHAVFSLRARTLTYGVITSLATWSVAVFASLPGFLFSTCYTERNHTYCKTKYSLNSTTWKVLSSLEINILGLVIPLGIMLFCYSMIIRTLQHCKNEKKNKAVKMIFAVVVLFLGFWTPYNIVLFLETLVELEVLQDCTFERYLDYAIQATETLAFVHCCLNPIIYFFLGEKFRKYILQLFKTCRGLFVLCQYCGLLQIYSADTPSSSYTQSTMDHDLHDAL

CO[C@H]1[C@@H](O)[C@H](N)[C@@H](O[C@H]2O[C@H]([C@H](C)N)CC[C@H]2N)[C@H](O)[C@@H]1N(C)C(=O)CN [ASTROMICIN]
Not Active: IC50 (Estrogen receptor) | IC50 (Mu-type opioid receptor) | IC50 [1] | Ki [1] | IC50 [2] | IC50 [3] | IC50 [4] | IC50 [5] | IC50 [6]

N=C(N)N/N=C/c1c(Cl)cccc1Cl [GUANABENZ]
Not Active: IC50 (Estrogen receptor) | IC50 (Mu-type opioid receptor) | IC50 [1] | Ki [1] | IC50 [2] | IC50 [3] | IC50 [4] | IC50 [5] | IC50 [6]

NC(=O)N1c2ccccc2C=Cc2ccccc21 [CARBAMAZEPINE]
Not Active: IC50 (Estrogen receptor) | IC50 (Mu-type opioid receptor) | IC50 [1] | Ki [1] | IC50 [2] | IC50 [3] | IC50 [4] | IC50 [5] | IC50 [6]

OCCN1CCN(CCCN2c3ccccc3Sc3ccc(Cl)cc32)CC1 [PERPHENAZINE]
Not Active: IC50 (Estrogen receptor) | IC50 (Mu-type opioid receptor) | IC50 [1] | Ki [1] | IC50 [2] | IC50 [3] | IC50 [4] | IC50 [5] | IC50 [6]

CCOC(=O)n1ccn(C)c1=S [CARBIMAZOLE]
Not Active: IC50 (Estrogen receptor) | IC50 (Mu-type opioid receptor) | IC50 [1] | Ki [1] | IC50 [2] | IC50 [3] | IC50 [4] | IC50 [5] | IC50 [6]

C[C@H]([C@](O)(Cn1cncn1)c1ccc(F)cc1F)S(C)(=O)=O [GENACONAZOLE]
Not Active: IC50 (Estrogen receptor) | IC50 (Mu-type opioid receptor) | IC50 [1] | Ki [1] | IC50 [2] | IC50 [3] | IC50 [4] | IC50 [5] | IC50 [6]

CCOC(=O)C1=C(C)NC(C)=C(C(=O)OC)C1c1cccc(Cl)c1Cl (stereo not drawn) [FELODIPINE]
Not Active: IC50 (Estrogen receptor) | IC50 (Mu-type opioid receptor) | IC50 [1] | Ki [1] | IC50 [2] | IC50 [3] | IC50 [4] | IC50 [5] | IC50 [6]

Nn1nnc2ccccc21
Not Active: IC50 (Estrogen receptor) | IC50 (Mu-type opioid receptor) | IC50 [1] | Ki [1] | IC50 [2] | IC50 [3] | IC50 [4] | IC50 [5] | IC50 [6]

CC(C)(CO)C(O)C(=O)NCCCO (stereo not drawn) [PANTHENOL]
Not Active: IC50 (Estrogen receptor) | IC50 (Mu-type opioid receptor) | IC50 [1] | Ki [1] | IC50 [2] | IC50 [3] | IC50 [4] | IC50 [5] | IC50 [6]

O=C(O)Cc1ccc(-c2ccccc2)cc1 [FELBINAC]
Not Active: IC50 (Estrogen receptor) | IC50 (Mu-type opioid receptor) | IC50 [1] | Ki [1] | IC50 [2] | IC50 [3] | IC50 [4] | IC50 [5] | IC50 [6]

C[C@H](C(=O)O)c1cccc(C(=O)c2ccccc2)c1 [DEXKETOPROFEN]
Not Active: IC50 (Estrogen receptor) | IC50 (Mu-type opioid receptor) | IC50 [1] | Ki [1] | IC50 [2] | IC50 [3] | IC50 [4] | IC50 [5] | IC50 [6]

CC[C@H]1OC(=O)[C@H](C)[C@@H](O[C@H]2C[C@@](C)(OC)[C@@H](O)[C@H](C)O2)[C@H](C)[C@@H](O[C@@H]2O[C@H](C)C[C@H](N(C)C)[C@H]2O)[C@](C)(OC)C[C@@H](C)C(=O)[C@H](C)[C@@H](O)[C@]1(C)O [CLARITHROMYCIN]
Not Active: IC50 (Estrogen receptor) | IC50 (Mu-type opioid receptor) | IC50 [1] | Ki [1] | IC50 [2] | IC50 [3] | IC50 [4] | IC50 [5] | IC50 [6]
